Reference: patent US8562669B2, “Methods of application of coatings composed of hydrophobic, high glass transition polymers with tunable drug release rates” (Abbott Cardiovascular Systems Inc., priority 2008, dated 2013)

Assay: Cumulative drug release at 24 hours from coated stents (USP type 7 tester, porcine serum)
Format: physicochemical
Conditions: stent coating of everolimus and 75:25 PLGA
Protocol: As used herein, any measurement of drug release, for example without limitation, release rate, release duration, or substantially released, refers to the an in-vitro measurement using a United States Pharmacopeia Type VII apparatus, using porcine serum with sodium azide optionally added (0.1% w/v) at a temperature of 37° C.
All stents were cleaned by being sonicated in isopropyl alcohol. Stents were coated with a primer layer of approximately 51 μg of 75:25 PLGA (poly(D,L-lactide-co-glycolide) provided by Boehringer Ingelheim, grade RG755S) by spraying from a solution of 2 weight % polymer in 90:10 acetone:methyl isobutyl ketone (w/w). More than one pass under the coater was required to obtain the target weight of polymer on the stent. The spraying operation was carried out with a custom made spray coater equipped with a spray nozzle, a drying nozzle, and a means to rotate and translate the stent under the nozzles with the processing parameters outlined in Table 1. Subsequent to coating, all stents were baked in a forced air convection oven at 140° C. for 30 minutes. […] More than one pass under the coater was required to obtain the target weight of polymer on the stent. The spraying operation was carried out with the same coater used for the primer spraying with the following parameters outlined in Table 2. After the drug layer coating, the stents were baked in a force air convection oven at 50° C. for 1 hour. After baking the coating, the stents were crimped onto 3.0×12 mm XIENCE V catheters, placed in protective tubular coils, and then sealed in Argon filled foil pouches. The stents were not sterilized. Cumulative release of the drug everolimus at 24 hours was determined using a United States Pharmacopeia type 7 tester in porcine serum with sodium azide 0.1% (w/v) added as the dissolution media. Everolimus released into solution was determined by HPLC analysis on the amount of drug remaining on the stent. The cumulative release expressed is one minus the fractional amount of drug remaining divided by the theoretical quantity or dose of drug per stent. In this experiment, the same drug to polymer ratio and the same polymer and drug were used but the spray coating was accomplished with different solvents. In one set of stents, the solvent was 100% acetone while for other stents the solvent was a 50:50 (w/w) mixture of acetone and methyl isobutyl ketone. The cumulative release as measured of drug after 24 hours for n=3 stents is illustrated in FIG. 1.
Stents were cleaned, coated with a primer of 75/25 PLGA, and then coated with a drug layer as described in Example 1 except that the drug to polymer ratio was 1:2 (and therefore the % solids in the coating solution was 3% (w/w)). […]

With CO[C@H]1C[C@@H]2CC[C@@H](C)[C@@](O)(O2)C(=O)C(=O)N2CCCC[C@H]2C(=O)O[C@H]([C@H](C)C[C@@H]2CC[C@@H](OCCO)[C@H](OC)C2)CC(=O)[C@H](C)/C=C(\C)[C@@H](O)[C@@H](OC)C(=O)[C@H](C)C[C@H](C)/C=C/C=C/C=C/1C [everolimus] the “cumulative release at 24 hours” value (drug:polymer 1:1, sprayed from 50:50 (w/w) acetone:methyl isobutyl ketone, 37° C.) was “about 96%”, the “cumulative release at 24 hours” value (drug:polymer 1:1, sprayed from 100% acetone, 37° C.) was “about 23%” and the “cumulative release at 24 hours” value (drug:polymer 1:2 as printed, sprayed from 50:50 (w/w) acetone:dimethyl acetamide) was “about 42%”. For the same molecule, the “cumulative release at 24 hours” value (drug:polymer 1:2 as printed, sprayed from 50:50 acetone:methyl isobutyl ketone) was “about 83%”.
